# Reference: DBAASP
# Legend:
# Experiment in all cases: ≥ marks a high value that may be exact or a test limit, other limits are often not marked, values filed in µg/mL are converted to µM
# [1] = test system: Bacillus subtilis KCTC 1998
# [2] = test system: Candida albicans KCTC 7270
# [3] = test system: Escherichia coli ATCC 25922
# [4] = test system: Escherichia coli CCARM 1229
# [5] = test system: Escherichia coli CCARM 1238
# [6] = test system: Listeria monocytogenes KCTC 3710
# [7] = test system: Pseudomonas aeruginosa 4007
# [8] = test system: Pseudomonas aeruginosa 4891
# [9] = test system: Pseudomonas aeruginosa ATCC 27853
# [10] = test system: Salmonella typhimurium KCTC 1926
# [11] = test system: Staphylococcus aureus ATCC 25923
# [12] = test system: Staphylococcus aureus CCARM 3090
# [13] = test system: Staphylococcus aureus CCARM 3518
# [14] = test system: Trichosporon beigelii KCTC 7707
# [15] = test system: Pseudomonas aeruginosa 1570
# [16] = test system: Pseudomonas aeruginosa 5167
# [17] = test system: Staphylococcus aureus LAC
# Bacillus subtilis = test system: Bacillus subtilis
# Escherichia coli W160-37 = test system: Escherichia coli W160-37
# [18] = test system: Pseudomonas putida NCIM 2102
# [19] = test system: Staphylococcus aureus 8530
# [20] = test system: Aspergillus flavus KCTC 6905
# [21] = test system: Candida albicans CCARM 14001
# [22] = test system: Candida albicans CCARM 14004
# [23] = test system: Candida albicans CCARM 14007
# [24] = test system: Candida albicans CCARM 14020
# [25] = test system: Candida krusei CCARM 14017
# [26] = test system: Candida parapsilosis CCARM 14016
# [27] = test system: Colletotrichum gloeosporioides KCTC 6169
# [28] = test system: Fusarium graminearum KCTC 16656
# [29] = test system: Fusarium oxysporum KCTC 16909
# [30] = test system: Fusarium solani KCTC 6326
# [31] = test system: Fusarium verticillioides KCTC 6149
# [32] = test system: Trichoderma virens KCTC 16924
# [33] = test system: Trichoderma viride KCTC 16992
# [34] = test system: Trichophyton rubrum KCTC 6345
# [35] = test system: Bacillus subtilis KCTC 3068
# [36] = test system: Enterococcus faecium ATCC 51559
# [37] = test system: Pseudomonas aeruginosa CCARM 2095
# [38] = test system: Pseudomonas aeruginosa CCARM 2109
# [39] = test system: Pseudomonas aeruginosa KCTC 1637
# [40] = test system: Staphylococcus aureus CCARM 3089
# [41] = test system: Staphylococcus aureus CCARM 3095
# [42] = test system: Staphylococcus epidermidis KCTC 1917
# [43] = test system: Staphylococcus aureus 5118
# [44] = test system: Staphylococcus aureus ATCC 9144
# [45] = test system: Staphylococcus aureus E4049
structure (smiles),measurement,setting,value
CC[C@H](C)[C@H](NC(=O)CNC(=O)[C@H](CCC(N)=O)NC(=O)[C@H](Cc1ccccc1)NC(=O)[C@@H](NC(=O)[C@H](CCCCN)NC(=O)[C@H](CCCCN)NC(=O)[C@H](CC(C)C)NC(=O)[C@H](C)NC(=O)[C@H](CC(N)=O)NC(=O)[C@H](CC(C)C)NC(=O)[C@@H](N)Cc1c[nH]c2ccccc12)C(C)C)C(=O)N[C@@H](Cc1cnc[nH]1)C(=O)N[C@@H](CCC(=O)O)C(=O)N[C@@H](C)C(=O)N[C@H](C(=O)N[C@@H](CCCCN)C(=O)N[C@@H](CC(C)C)C(=O)N[C@H](C(=O)N[C@@H](Cc1c[nH]c2ccccc12)C(=O)N[C@@H](CC(N)=O)C(=O)N[C@@H](Cc1c[nH]c2ccccc12)C(=O)N[C@H](C(=O)N[C@@H](CCC(N)=O)C(N)=O)C(C)C)[C@@H](C)CC)[C@@H](C)CC [WLNALKKVFQGIHEAIKLIWNWVQ],MIC,[1],≥ 32 µM
same,MIC,[2],≥ 32 µM
same,MIC,[3],16 µM
same,MIC,[4],≥ 32 µM
same,MIC,[5],≥ 32 µM
same,MIC,[6],≥ 32 µM
same,MIC,[7],≥ 64 µM
same,MIC,[8],≥ 64 µM
same,MIC,[9],16 µM
same,MIC,[10],16 µM
same,MIC,[11],32 µM
same,MIC,[12],≥ 32 µM
same,MIC,[13],≥ 32 µM
same,MIC,[14],≥ 32 µM
CC(C)C[C@H](NC(=O)[C@H](CC(C)C)NC(=O)[C@H](CCCCN)NC(=O)[C@H](CCCCN)NC(=O)[C@H](CC(C)C)NC(=O)[C@H](C)NC(=O)[C@H](CCCCN)NC(=O)[C@H](CC(C)C)NC(=O)[C@@H](N)Cc1ccccc1)C(N)=O [FLKALKKLL],MIC,[15],10.5 µM
same,MIC,[16],≥ 119 µM
C[C@H](N)C(=O)N[C@@H](C)C(=O)N[C@@H](C)C(=O)N[C@@H](C)C(=O)N[C@@H](CCCN=C(N)N)C(=O)N[C@@H](CCCN=C(N)N)C(=O)N[C@@H](CCCN=C(N)N)C(=O)N[C@@H](CCCN=C(N)N)C(=O)O [AAAARRRR],MIC,[3],> 138 µM
same,MIC,[17],≥ 138 µM
CC[C@H](C)[C@H](NC(=O)[C@H](CC(C)C)NC(=O)[C@H](CCCCN)NC(=O)[C@H](CCCCN)NC(=O)[C@H](CC(C)C)NC(=O)CN)C(=O)N[C@@H](CO)C(=O)N[C@@H](Cc1c[nH]c2ccccc12)C(=O)N[C@H](C(=O)N[C@@H](CCCCN)C(=O)N[C@@H](CCCN=C(N)N)C(=O)N[C@@H](C)C(=O)N[C@@H](C)C(=O)N[C@@H](CCC(N)=O)C(=O)N[C@@H](CCC(N)=O)C(=O)NCC(N)=O)[C@@H](C)CC [GLKKLISWIKRAAQQG],MIC,Bacillus subtilis,1.57 µM
same,MIC,Escherichia coli W160-37,6.81 µM
same,MIC,[18],30.5 µM
same,MIC,[19],3.93 µM
NCCCC[C@H](NC(=O)[C@H](CCCCN)NC(=O)[C@H](Cc1cnc[nH]1)NC(=O)[C@H](CCCCN)NC(=O)[C@H](CCCCN)NC(=O)[C@H](Cc1cnc[nH]1)NC(=O)[C@H](CCCCN)NC(=O)[C@H](CCCCN)NC(=O)[C@H](Cc1cnc[nH]1)NC(=O)[C@H](CCCCN)NC(=O)[C@H](CCCCN)NC(=O)[C@H](Cc1cnc[nH]1)NC(=O)[C@H](CCCCN)NC(=O)[C@H](CCCCN)NC(=O)[C@H](Cc1cnc[nH]1)NC(=O)[C@H](CCCCN)NC(=O)[C@H](CCCCN)NC(=O)[C@@H](N)Cc1cnc[nH]1)C(N)=O [HKKHKKHKKHKKHKKHKK],MIC,[20],4 µM
same,MIC,[21],16 µM
same,MIC,[22],16 µM
same,MIC,[23],16 µM
same,MIC,[24],16 µM
same,MIC,[2],16 µM
same,MIC,[25],4 µM
same,MIC,[26],16 µM
same,MIC,[27],1 µM
same,MIC,[28],8 µM
same,MIC,[29],2 µM
same,MIC,[30],2 µM
same,MIC,[31],2 µM
same,MIC,[32],8 µM
same,MIC,[33],2 µM
same,MIC,[34],8 µM
CC[C@H](C)[C@H](NC(=O)[C@H](Cc1ccccc1)NC(=O)[C@H](CCCN=C(N)N)NC(=O)[C@@H](N)CCCCN)C(=O)N[C@@H](CCCCN)C(=O)N[C@@H](Cc1c[nH]c2ccccc12)C(=O)N[C@@H](Cc1ccc(O)cc1)C(=O)N[C@@H](CC(N)=O)C(=O)N[C@@H](C)C(=O)N[C@@H](Cc1c[nH]c2ccccc12)C(=O)N[C@@H](CC(N)=O)C(=O)N[C@@H](CCC(=O)O)C(=O)N[C@@H](CCCCN)C(=O)N[C@@H](CCCN=C(N)N)C(=O)N[C@@H](CCCN=C(N)N)C(=O)N[C@H](C(=O)N[C@@H](Cc1ccc(O)cc1)C(N)=O)C(C)C [KRFIKWYNAWNEKRRVY],MIC,[35],8 µM
same,MIC,[36],8 µM
same,MIC,[37],4 µM
same,MIC,[38],16 µM
same,MIC,[39],16 µM
same,MIC,[10],4 µM
same,MIC,[40],8 µM
same,MIC,[12],8 µM
same,MIC,[41],8 µM
same,MIC,[42],8 µM
CSCC[C@H](NC(=O)[C@@H](NC(=O)[C@H](Cc1ccccc1)NC(=O)[C@H](CC(C)C)NC(=O)[C@H](CC(C)C)NC(=O)[C@@H](NC(=O)[C@H](C)NC(=O)[C@@H](N)CC(C)C)[C@@H](C)O)[C@@H](C)O)C(=O)N[C@@H](CS)C(=O)N[C@@H](CC(C)C)C(=O)N[C@@H](CC(N)=O)C(=O)N[C@@H](Cc1ccccc1)C(=O)N[C@@H](CS)C(=O)NCC(=O)N[C@H](C(=O)N[C@@H](CC(C)C)C(=O)N[C@@H](C)C(=O)NCC(=O)N[C@@H](CC(=O)O)C(=O)N[C@@H](CC(=O)O)C(=O)O)C(C)C [LATLLFTMCLNFCGVLAGDD],MIC,[43],3.78 µM
same,MIC,[44],≥ 125 µM
same,MIC,[45],15.6 µM
